Test results taken from patent US8143276B2, “4-thio substituted quinoline and naphthyridine compounds” (XTL Biopharmaceuticals Ltd., priority 2007, dated 2012).

Columns and labels:
[1] = tested on: HCV Replicon; assay: HCV Replicon Luciferase Assay; assay type: cell-based, Hepatitis C virus; conditions: Hepatitis C virus; Huh-Luc-Neo cells, 48 h incubation, luciferase reporter; read-out: Replicon Inhibition*, Luciferase
Procedure: The identification of inhibitors of HCV replication and/or proliferation has been facilitated by the development of a cell-based system to study HCV replication. Inhibition of HCV replication may be performed using the HCV Replicon Assay developed in the laboratories of Bartenschlager (Lohman et al, Science 285, 110-113, 1999) and Rice (Blight et al, Science 290, 1972-1974, 2000). The assay is performed using the Huh-Luc-Neo cell line (Lohman et al, Science 285, 110-113, 1999). Huh-Luc-Neo cells are a human hepatoma cell line (Huh-7) stably expressing a bi-cistronic subgenomic replicon containing the HCV IRES in which the structural proteins of HCV have been deleted and replaced by a construct containing sequences coding for the firefly luciferase reporter gene, the neomycin selectable marker and the EMCV IRES to direct expression of a truncated HCV genome expressing the […] NS3, NS4A, NS4B, NS5A, and NS5B. HCV targets through which inhibitors could act to inhibit replication include the NS3 protease, the helicase/ATPase, NS5A, the NS5B-RNA dependent RNA polymerase, and the HCV IRES.
(§1) Expression of HCV IRES driven luciferase reporter activity and HCV RNA is measured to obtain indirect and direct measures of replication of HCV RNA respectively. Inhibitors of HCV replication and/or proliferation are determined by initially identifying molecules that inhibit expression of the HCV IRES driven luciferase reporter in this HCV Replicon Luciferase Assay. Cell viability assays and control cell based luciferase assays are then run on hits identified in the HCV Replicon Luciferase Assay to eliminate cytoxic compounds and non-specific compounds which act by inhibiting the luciferase enzyme.
(§2) Day 0, Cell Seeding and Compound Treatment: Huh-Luc-Neo Cells are seeded at 25,000/well in an opaque-walled 96 plate with Growth Medium (DMEM phenol red free+PS+2 mM glutamine; 100 μl/well). The compounds to be tested are added to the experimental wells (10 μl/well at 10× assay concentration) and the cells are then incubated (5% CO2, 37° C.) for 48 h.
Day 2, Reagent Preparation and Luciferase Assay: The Bright-Glo Luciferase Assay Buffer (Promega) is thawed and equilibrated to room temperature prior to use. The lyophilized Bright-Glo Luciferase Assay Substrate is equilibrated to room temperature prior to use. 10 ml of Bright-Glo Luciferase Assay Buffer is transferred to 1 vial of Bright-Glo Luciferase Assay Substrate bottle and mixed by gently with a Vortex. 100 μl of Bright-Glo Luciferase Assay reagent (Bright-Glo Luciferase Assay Buffer+Bright-Glo Luciferase Assay Substrate Mixture) is added to each well. The well contents are mixed for 5 min. on an orbital shaker at room temperature to induce cell lysis and the luminescence is then measured using a luminometer. The data is analyzed and IC50s are determined using GraphPad Prism 4 software. Hits validated in the Replicon Luciferase assay have IC50s<8.0 μM and show <30% inhibition of Cell Viability at a compound concentration of 100 μM (Cell Titer Glow Assay, cell viability assay conditions identical to HCV Replicon Luciferase Assay conditions).

[2] = tested on: HCV RNA; assay: HCV Replicon RNA Assay (Taqman); assay type: cell-based, Hepatitis C virus; conditions: Hepatitis C virus; Huh-Luc-Neo cells, compound re-added at 24 h, HCV RNA by quantitative PCR; read-out: Replicon Inhibition*, Taqman
Procedure: as §1
as §2, with “C.).” for “C.) for 48 h.”
Day 1, Media Change and Compound Treatment: 24 hours after the initial compound treatment the cell culture media is aspirated from the wells and fresh Growth Medium is added (DMEM phenol red free+PS+2 mM glutamine; 100 μl/well). The compounds to be tested are then added to the appropriate experimental wells (10 μl/well at 10× assay concentration) and the cells are then incubated (5% CO2, 37° C.) for an additional 24 hrs.
Day 2, RNA Isolation and cDNA Synthesis: The cells are washed with 1× Phosphate Buffered Saline (PBS) once.
Day 3, Quantitative PCR Based Measurement of HCV RNA (Taqman Assay): Quantitative PCR analysis to measure HCV RNA expression from cDNA synthesized on Day 2 is performed using the ABI 9700 HT Sequence Detection System (Applied Biosystems) as previously described (Lohman et al, Science 285, 110-113, 1999). The data is analyzed and IC50s are determined using GraphPad Prism 4 software. Hits validated in the Replicon RNA Assay have IC50s<8.0 μM and show <30% inhibition of Cell Viability at a compound concentration of 50 μM (Cell Titer Glow Assay, cell viability assay conditions identical to HCV Replicon RNA Assay conditions).

[3] = CellTiter-Glo Cell Viability Assay; assay type: cell-based, human; conditions: human, Huh-Luc-Neo cells, read-out: Cytotoxicity*
Procedure: as §2, with “ul/well).” for “μl/well).”, “tested for inhibition of cell viability” for “tested”
(§3) Day 2, Reagent Preparation and Assay: The CellTiter-Glo Buffer is thawed and equilibrated to room temperature prior to use. The lyophilized CellTiter-Glo Substrate is equilibrated to room temperature prior to use. 10 ml of CellTiter-Glo Buffer is transferred to 1 vial of CellTiter-Glo Substrate and mixed by gently with a Vortex. 100 μl of CellTiter-Glo Assay reagent (CellTiter-Glo Buffer+CellTiter-Glo Substrate Mixture) is added to each well. The well contents are mixed for 5 min. on an orbital shaker at room temperature to induce cell lysis and the luminescence is then measured using a luminometer.

[4] = tested on: Huh-Luc-Neo Cells; assay: CellTiter-Glo Cell Viability Assay; assay type: cell-based, human; conditions: 48 h, read-out: Cytotoxicity*
Procedure: as §2, with “ul/well).” for “μl/well).”, “tested for inhibition of cell viability” for “tested”
as §3

Row | SMILES | IC50 [1] | IC50 [2] | IC50 at 48 h [3] | IC50 [4]
1 | Cn1c(=O)cc(Sc2ccc(Br)cc2)c2ccccc21 [compound 001] | 1 to 10 µM | < 1 µM | > 100 µM | 
2 | Cn1c(=O)cc(Sc2ccc(Cl)cc2)c2ccccc21 [compound 002] | 1 to 10 µM | 1 to 10 µM | > 100 µM | 
3 | Cn1c(=O)cc(Sc2ccc(F)cc2)c2ccccc21 [compound 003] | 1 to 10 µM | 1 to 10 µM | > 100 µM | 
4 | Cn1c(=O)cc(Sc2c(Cl)cccc2Cl)c2ccccc21 [compound 004] | 1 to 10 µM | < 1 µM | > 100 µM | 
5 | Cn1c(=O)cc(Sc2ccccc2F)c2ccccc21 [compound 005] | 1 to 10 µM | 1 to 10 µM |  | 10 to 100 µM
6 | Cn1c(=O)cc(Sc2cc(Cl)ccc2Cl)c2ccccc21 [compound 006] | 10 to 100 µM | 1 to 10 µM | > 100 µM | 
7 | Cn1c(=O)cc(Sc2cccc(F)c2)c2ccccc21 [compound 007] | 1 to 10 µM | 1 to 10 µM | > 100 µM | 
8 | Cn1c(=O)cc(Sc2ccc(N)cc2)c2ccccc21 [compound 009] | < 1 µM | < 1 µM | > 100 µM | 
9 | CCn1c(=O)cc(Sc2ccc(Br)cc2)c2ccccc21 [compound 010] | 1 to 10 µM | < 1 µM | > 100 µM | 
10 | Cn1c(=O)cc(Sc2ccc(Br)cc2)c2cc(Cl)ccc21 [compound 011] | 1 to 10 µM | 1 to 10 µM | > 100 µM | 
11 | COc1ccc(Sc2cc(=O)n(C)c3ccccc23)cc1 [compound 012] | 1 to 10 µM | 10 to 100 µM | > 100 µM | 
12 | Cn1c(=O)cc(Sc2ccc(C(C)(C)C)cc2)c2ccccc21 [compound 013] | 1 to 10 µM | < 1 µM | > 100 µM | 
13 | Cn1c(=O)cc(Sc2ccc(I)cc2)c2ccccc21 [compound 014] | 1 to 10 µM | < 1 µM | > 100 µM | 
14 | Cn1c(=O)cc(Sc2ccc(Cl)cc2)c2cc(F)ccc21 [compound 015] | 1 to 10 µM | 1 to 10 µM | > 100 µM | 
15 | Cc1ccc(Sc2cc(=O)n(C)c3ccc(F)cc23)cc1 [compound 016] | 1 to 10 µM | 1 to 10 µM | > 100 µM | 
16 | CC(=O)Nc1ccc(Sc2cc(=O)n(C)c3ccccc23)cc1 [compound 017] | 1 to 10 µM | 1 to 10 µM | > 100 µM | 
17 | Cn1c(=O)cc(Sc2ccc(F)cc2)c2cc(F)ccc21 [compound 018] | 1 to 10 µM | 1 to 10 µM | > 100 µM | 
18 | Cn1c(=O)cc(Sc2ccc(N)cc2)c2cccnc21 [compound 019] | < 1 µM | 1 to 10 µM | > 100 µM | 
